Experimental findings from US11925630B1, “6′-(2-bromophenyl)-2′-methoxy-3,4′-bipyridine-3′-carbonitrile as an antioxidant compound” (KING FAISAL UNIVERSITY, priority 2023, dated 2024) are described below.

This experiment is described as follows: DPPH radical scavenging antioxidant test. The format is biochemical. Particulars: 517 nm; for Inhibition (radical scavenging inhibition): 0.2 mL DPPH (0.75 mM), compound 3 μM in ethanol, 30 minutes in the dark. On the procedure:
The antioxidant activity of 6′-(2-bromophenyl)-2′-methoxy-3,4′-bipyridine-3′-carbonitrile was investigated by 2,2-diphenyl-1-picrylhydrazyl (DPPH) in vitro tests that employ vitamin C as the positive control.
The antioxidant properties of the 6′-(2-bromophenyl)-2′-methoxy-3,4′-bipyridine-3′-carbonitrile compound were studied by adding 0.2 mL DPPH (0.75 mM)) to 6′-(2-bromophenyl)-2′-methoxy-3,4′-bipyridine-3′-carbonitrile (3 μM) (4) in ethanol. After 30 minutes of incubation in the dark, the absorbance was read against a blank at 517 nm. Ascorbic acid (vitamin C) was used as standard antioxidants (positive control). A blank sample was prepared by 0.2 mL of DPPH in 3 mL ethanol. A negative control sample was run using ethanol instead of the sample. The radical scavenging inhibition was calculated using the following equation: […]
The antioxidant activity for the synthesized compound is listed in Table 1, using Vitamin C as a reference.
In general terms: Loss of DPPH colour is used to gauge radical scavenging.

Turning to `COc1nc(-c2ccccc2Br)cc(-c2cccnc2)c1C#N` [Product 4, 6′-(2-bromophenyl)-2′-methoxy-3,4′-bipyridine-3′-carbonitrile], the “Inhibition (radical scavenging inhibition)” value came out at 50%. The “antioxidant potential compared to vitamin C (in words)” value (DPPH in vitro test, vitamin C as positive control) is listed as “high potential as an antioxidant”.

On to `O=C1O[C@H]([C@@H](O)CO)C(O)=C1O` [vit c, Ascorbic acid, reference compound], for which the “Inhibition (radical scavenging inhibition)” value was 74%.
